# Experimental data taken from patent US20090069244A1, “Mutants of lactoferrin” (AM-Pharma B.V., priority 2007, published 2009).
# Test system: Methicillin Resistant Staphylococcus aureus (MRSA), Escherichia coli and/or Candida albicans
# Test: Minimal inhibitory concentration (MIC) assay, microdilution
# Assay type: cell-based
# Settings: MIC not more than 1 dilution from the reference peptide (Pep001 or MD012) counts as equal activity
# Description: To compare antimicrobial activity of the mutants, the inventors made use of the minimal inhibitory concentration (MIC) assay, extensively described in the literature and which has become a world wide standardized test for, e.g., determining susceptibility of strains towards antibiotics (reference “National Committee for Clinical Laboratory Standards: Performance standards for antimicrobial susceptibility testing; fourteenth informational supplement. M100-S14, Volume 24, Wayne, Pa.; 2004.”). The MIC assay is a fast, reliable assay that is used throughout the world in medical microbiology divisions to test e.g., antibiotic response of clinical isolates to monitor antibiotic therapy. MIC values represent the lowest concentration of antibiotic or antifungal that inhibits >90% of growth of the micro-organism. In hospitals MIC values are also used to determine strength of antibiotic therapy where one of the pharmacokinetic parameters is expressed as “hours over MIC”. The inventors therefore feel that MIC values, in contrast to e.g., killing assays, more closely relate to clinical efficacy of the drug and predict more correctly the success of a drug in the clinic.
# Antimicrobial properties of the different peptides against a gram negative bacteria (Escherichia coli ATCC 035), a gram positive bacteria (Methicillin Resistant Staphylococcus aureus (MRSA) ATCC 2141) both obtained from the American Type Culture Collection (ATCC, Manassas (VA), USA) and Yeast (Candia Albicans Y01-19; clinical isolate of LUMC, Leiden, the Netherlands) were used for the MIC determination.
# Minimal inhibitory concentrations (MICs) were determined by microdilution method according to CLSI guidelines using RPMI1640 medium diluted 1:4 in […] sterile filtered MilliQ and an bacterial inoculum of 5×10^5 CFU/ml. Plates were read after 20-24 h incubation at 35° C. in ambient air. MICs were recorded as the lowest concentration that inhibited visible growth.
# Both tables show the MIC values of the various peptides for Methicillin Resistant Staphylococcus aureus (MRSA), Escherichia coli and/or Candida albicans. […]
row,Substance,antimicrobial activity (MIC) compared with the reference peptide
1,RRRRQWC [RRRRQWC (SEQ ID NO:141)],acceptable antimicrobial activity
2,RRRRSVC [RRRRSVC (SEQ ID NO:143)],acceptable antimicrobial activity
3,RRRRSWC [RRRRSWC (SEQ ID NO:142)],acceptable antimicrobial activity
